Test results reported in patent US7879853B2, “4,6-disubstituted pyrimidines and their use as protein kinase inhibitors” (Bayer Schering Pharma AG, priority 2004, dated 2011).

How the values were obtained:
[1] = molecular target: T1, Akt1 (full-length Akt1, active) (Homo sapiens, UniProt P31749); assay: Biochemical Akt1 (active) assay (full-length Akt1), flashplate, Crosstide; conditions: Crosstide substrate, 100 nM ATP, 60 minutes at 30° C.; read-out: Akt1 inhibition (full-length Akt1, active): IC50
T1 construct: recombinant full-length human Akt1, containing N-terminal His6 tag; His6 (N); GST (alternative statement of the assay paragraph) (N); purchased Upstate, UK #14-276; host or cells: baculovirus infected Sf21 insect cells
Text: For the biochemical Akt1 assay recombinant full-length human Akt1, containing N-terminal His6 tag was cloned and expressed in baculovirus infected Sf21 insect cells. Akt1 is activated with GST-MAPKAP-K2 and PDK1, and repurified on Ni2+/NTA-agrose and glutathioneagarose (Upstate, UK; #14-276).
In order to study the inhibition of Akt1 (full-length version) according to the invention, a flashplate-based assay has been developed.
The full-length Akt1 assay is a biochemical assay using Akt1 N-terminally fused to GST and co-expressed with PDK1 in insect cells. The Akt1 assay is run in 96 well plates by incubating 500 ng/well GST-Akt1, 1 μM Crosstide (N-terminally biotinylated synthetic peptide (KGSGSGRPRTSSFAEG) Upstate, #12-385) as substrate, 10 μl of test compound (test compounds were dissolved as 10 mM solutions in dimethylsulfoxide (DMSO) and subsequently diluted) and 100 nM ATP (including ^33P-ATP) in 100 μl of reaction buffer (50 mM HEPES, pH7.5; 3 mM MgCl2; 3 mM MnCl2; 3 μM Na-Orthovanadat; 1 mM DTT; 1 μg/ml PEG8000) for 60 minutes at 30° C. in 96 well microtiter plates. The reactions are terminated by adding 100 μl stopping buffer (5M NaCl, 35 mM EDTA pH 8,0) for 5 minutes. 190 μl of the reaction mixture are transferred into streptavidin-coated Flashplates (Perkin Elmer, #SMP-103) and incubated for further 30 minutes at room temperature. The plates are washed 3 times by using washing buffer (0.9% NaCl). Relying on the incorporation of ^33P into the peptide substrate crosstide, the detection is based on the specific binding of the biotinylated peptide to the streptavidin-coated surface of scintillator-coated flash plates (NEN, USA; #SMP-103). This phosphorylation is measured by counting the plate for 60 sec. using a plate reader (Wallac Microbeta; Perkin Elmer, USA). The analysis of the data is performed using a biostatistical program (GraphPad Prism, USA).

[2] = molecular target: T2, Akt1 (full-length Akt1, inactive) (Homo sapiens, UniProt P31749); assay: Biochemical Akt1 (inactive) assay (full-length Akt1), IMAP, PDK1-dependent activation; conditions: activation by PDK1 with PIP3 vesicles, 50 μM ATP, 60 min. at room temperature; read-out: Inhibition of Akt1 activation (full-length Akt1, inactive): IC50
T2 construct: recombinant full-length human Akt1 a containing N-terminal His6 tag; His6 (N); purchased Upstate, UK #14-279; host or cells: baculovirus infected Sf21 insect cells
Description: The enzyme is purified using Ni2+/NTA-agarose (Upstate, UK; #14-279).
The enzyme is purified using Ni2+/NTA-agarose.
PDK1-dependent activation and subsequent enzymatic activity of Akt1: Activity of purified human Akt1 is routinely measured in an assay in which the enzyme is first activated by PDK1 in the presence of phosphatidylinositol-3,4,5-triphosphate (PIP3). Once activated, Akt1-dependent phosphorylation of a fluorescence labelled peptide substrate is measured by fluorescence polarisation using the IMAP technology (Molecular Devices).
The phospholipids are prepared as follows: 5 mg DOPC/DOPS are solved in 200 μl 10 mM Tris (pH 7.4) and 300 μg PIP3 are resuspended in 950 μl 10 mM Tris (pH 7.4) by pipetting. 950 μl solved PIP3 are mixed with 50 μl solved DOPC/DOPS and incubated for 2 h at a temperature below 20° C. Then the mixture is subjected to sonification for 30 min. at max. power until a translucent phopholipid vesicle preparation is obtained. Aliquots of the vesicle suspension are frozen at −80° C. until needed, likewise the solved DOPC/DOPS.
Assays are performed in 384-well plates. Incubations are carried out for 60 min. at room temperature. The reaction buffer mixture contains in a final volume of 25 μl: 10 mM Tris pH 7.4, 10 mM MgCl2. 1 mM DTT, and 0,1 mg/ml BSA. In contrast the activation buffer contains: 50 ng/well Akt1, 20 ng/well PDK1, 1.25 μM peptide substrat, 50 μM ATP, and phospholipid vesicles (1:20). Test compounds are added from stock solutions in DMSO before activation of Akt1 by PDK1. After the incubation the beads (IMAP binding reagent; Molecular Devices; 1:167) are added and the fluorescence polarization is measured (excitation 485 nm, emission 530 nm). The analysis of the data is performed using a biostatistical program.

MDA-MB-468 cells = assay: Cellular proliferation/cytotoxicity assay (Alamar Blue), MDA-MB-468; type: cell-based; conditions: Homo sapiens; MDA-MB-468, 48 hours, Alamar Blue (Resazurin); read-out: Anti-proliferative/cytotoxic activity: IC50 MDA468
Description: (§1) The anti-proliferative activity of the compounds as described herein, is evaluated using MCF7 and MDA-MB-468 (ATCC HTB-22 and HTB-132) cell lines and the Alamar Blue (Resazurin) cell viability assay (O'Brien et al. Eur J Biochem 267, 5421-5426, 2000). Resazurin is reduced to the fluorescent rescrufin by cellular dehydrogenase activity, correlating with viable, proliferating cells. Test compounds are dissolved as 10 mM solutions in DMSO and subsequently diluted. MCF7 or […] cells were seeded into 96 well flat bottom plates at a density of 10000 cells/well (MCF7) or 5000 cells/well (MDA-MB-468) in a volume of 200 μl/well. 24 hours after seeding, 1 μl each of the compound dilutions are added into each well of the 96 well plates. Each compound dilution is tested as at least as duplicates. Wells containing untreated control cells were filled with 200 μl DMEM containing 0.5% v:v DMSO. The cells are then incubated with the substances for 48 hours at 37° C. in a humidified atmosphere containing 5% carbon dioxide. To determine cell viability, 20 μl of a Resazurin solution (Sigma; 90 mg/l) are added. After 4 hours incubation at 37° C. the fluorescence is measured at an extinction of 544 nm and an emission of 590 nm (Wallac Victor2; Perkin Elmer, USA). For the calculation of the cell viability the emission value from untreated cells is set as 100% viability and the emission rates of treated cells are set in relation to the values of untreated cells. Viabilities are expressed as % values. The corresponding IC50 values of the compounds for cytotoxic activity are determined from the concentration-effect curves by means of non-linear regression. The analysis of the data is performed using a biostatistical program (GraphPad Prism, USA).

MCF7 cells = assay: Cellular proliferation/cytotoxicity assay (Alamar Blue), MCF7; type: cell-based; conditions: Homo sapiens; MCF7, 48 hours, Alamar Blue (Resazurin); read-out: Anti-proliferative/cytotoxic activity: IC50 MCF7
Description: as §1

T1 sequence (P31749 whole entry): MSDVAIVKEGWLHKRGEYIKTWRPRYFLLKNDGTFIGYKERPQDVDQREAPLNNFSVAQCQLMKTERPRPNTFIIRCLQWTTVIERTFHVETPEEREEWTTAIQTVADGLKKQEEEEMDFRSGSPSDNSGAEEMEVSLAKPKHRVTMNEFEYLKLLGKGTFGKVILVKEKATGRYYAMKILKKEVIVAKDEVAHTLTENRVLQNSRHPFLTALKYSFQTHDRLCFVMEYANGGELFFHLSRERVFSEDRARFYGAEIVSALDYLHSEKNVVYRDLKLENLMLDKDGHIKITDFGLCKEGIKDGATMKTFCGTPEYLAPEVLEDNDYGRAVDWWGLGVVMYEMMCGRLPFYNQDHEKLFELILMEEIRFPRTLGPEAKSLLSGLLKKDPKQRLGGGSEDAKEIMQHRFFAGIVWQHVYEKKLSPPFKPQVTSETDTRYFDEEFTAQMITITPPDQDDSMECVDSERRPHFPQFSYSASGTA
T2 sequence (P31749 whole entry): as above

## CC(C)(N)c1ccc(C(=O)Nc2ccc(Nc3cc(-c4cccc5c4oc4ccccc45)ncn3)cc2)cc1 [Compound 69, 4-(1-Amino-1-methyl-ethyl)-N-[4-(6-dibenzofuran-4-yl-pyrimidin-4-ylamino)-phenyl]-benzamide trifluoracetate]
[1]
  IC50: ≤ 1.75 µM
[2]
  IC50: ≤ 4.4 µM
MDA-MB-468 cells
  IC50: ≤ 6.05 µM
MCF7 cells
  IC50: ≤ 16.6 µM
